Assay: xn = mol fraction of the nth substance listed
Settings: 101 kPa, Liquid, Vibrating tube method

CC1COC(=O)O1 (configuration not stated) [4-methyl-1,3-dioxolan-2-one] + Cc1ccccc1
Settings | mass density [kg/m3]
293.15 K, x2 = 0 | 1200.3
293.15 K, x2 = 0.0578 | 1177.7
293.15 K, x2 = 0.1279 | 1151
293.15 K, x2 = 0.1735 | 1133.9
293.15 K, x2 = 0.2387 | 1110
293.15 K, x2 = 0.3248 | 1079.4
293.15 K, x2 = 0.3891 | 1057.1
293.15 K, x2 = 0.4398 | 1039.9
293.15 K, x2 = 0.5179 | 1014
293.15 K, x2 = 0.5621 | 999.7
293.15 K, x2 = 0.6381 | 975.4
293.15 K, x2 = 0.7139 | 951.8
293.15 K, x2 = 0.7639 | 936.5
293.15 K, x2 = 0.8247 | 918.2
293.15 K, x2 = 0.8739 | 903.6
293.15 K, x2 = 0.9376 | 884.9
303.15 K, x2 = 0 | 1180.6
303.15 K, x2 = 0.0516 | 1161
303.15 K, x2 = 0.1211 | 1135.3
303.15 K, x2 = 0.1782 | 1114.7
303.15 K, x2 = 0.2298 | 1096.4
303.15 K, x2 = 0.2971 | 1073
303.15 K, x2 = 0.3565 | 1052.9
303.15 K, x2 = 0.4134 | 1034
303.15 K, x2 = 0.4681 | 1016.2
303.15 K, x2 = 0.5371 | 994.2
303.15 K, x2 = 0.6021 | 973.9
303.15 K, x2 = 0.6629 | 955.4
303.15 K, x2 = 0.7232 | 937.2
303.15 K, x2 = 0.7832 | 919.5
303.15 K, x2 = 0.8537 | 899.1
303.15 K, x2 = 0.9245 | 878.8
313.15 K, x2 = 0 | 1161.3
313.15 K, x2 = 0.0467 | 1144.2
313.15 K, x2 = 0.1274 | 1115.2
313.15 K, x2 = 0.1832 | 1095.7
313.15 K, x2 = 0.2572 | 1070.4
313.15 K, x2 = 0.3291 | 1046.5
313.15 K, x2 = 0.3938 | 1025.5
313.15 K, x2 = 0.4531 | 1006.7
313.15 K, x2 = 0.5291 | 983.2
313.15 K, x2 = 0.5919 | 964.2
313.15 K, x2 = 0.6472 | 947.7
313.15 K, x2 = 0.6938 | 934.1
313.15 K, x2 = 0.7524 | 917.2
313.15 K, x2 = 0.8138 | 899.7
313.15 K, x2 = 0.8623 | 886.1
313.15 K, x2 = 0.9427 | 863.9
323.15 K, x2 = 0 | 1142.4
323.15 K, x2 = 0.0592 | 1121.4
323.15 K, x2 = 0.114 | 1102.4
323.15 K, x2 = 0.1734 | 1082.1
323.15 K, x2 = 0.2378 | 1060.7
323.15 K, x2 = 0.3139 | 1036
323.15 K, x2 = 0.3681 | 1018.8
323.15 K, x2 = 0.4244 | 1001.4
323.15 K, x2 = 0.4711 | 987.1
323.15 K, x2 = 0.5137 | 974.3
323.15 K, x2 = 0.5828 | 954
323.15 K, x2 = 0.6528 | 933.8
323.15 K, x2 = 0.725 | 913.4
323.15 K, x2 = 0.7941 | 894.2
323.15 K, x2 = 0.8529 | 878.2
323.15 K, x2 = 0.9172 | 860.9
333.15 K, x2 = 0 | 1124
333.15 K, x2 = 0.0545 | 1105.2
333.15 K, x2 = 0.1287 | 1080.2
333.15 K, x2 = 0.1831 | 1062.3
333.15 K, x2 = 0.2417 | 1043.4
333.15 K, x2 = 0.3274 | 1016.5
333.15 K, x2 = 0.3818 | 999.9
333.15 K, x2 = 0.4383 | 983
333.15 K, x2 = 0.4819 | 970.1
333.15 K, x2 = 0.5381 | 953.9
333.15 K, x2 = 0.5821 | 941.3
333.15 K, x2 = 0.6421 | 924.5
333.15 K, x2 = 0.7138 | 904.8
333.15 K, x2 = 0.7832 | 886.1
333.15 K, x2 = 0.8527 | 867.7
333.15 K, x2 = 0.9323 | 846.9
343.15 K, x2 = 0 | 1106
343.15 K, x2 = 0.0613 | 1085.5
343.15 K, x2 = 0.1248 | 1064.7
343.15 K, x2 = 0.1822 | 1046.3
343.15 K, x2 = 0.2489 | 1025.5
343.15 K, x2 = 0.3011 | 1009.5
343.15 K, x2 = 0.3719 | 988.4
343.15 K, x2 = 0.458 | 963.3
343.15 K, x2 = 0.5043 | 950.2
343.15 K, x2 = 0.5729 | 931.1
343.15 K, x2 = 0.6429 | 912
343.15 K, x2 = 0.7041 | 895.7
343.15 K, x2 = 0.7634 | 880.1
343.15 K, x2 = 0.8241 | 864.4
343.15 K, x2 = 0.8721 | 852.2
343.15 K, x2 = 0.9347 | 836.3
353.15 K, x2 = 0 | 1088.4
353.15 K, x2 = 0.0524 | 1071.3
353.15 K, x2 = 0.1139 | 1051.6
353.15 K, x2 = 0.1942 | 1026.6
353.15 K, x2 = 0.2589 | 1007
353.15 K, x2 = 0.3238 | 987.8
353.15 K, x2 = 0.4035 | 964.9
353.15 K, x2 = 0.4598 | 949.1
353.15 K, x2 = 0.5243 | 931.4
353.15 K, x2 = 0.5825 | 915.7
353.15 K, x2 = 0.6359 | 901.6
353.15 K, x2 = 0.693 | 886.8
353.15 K, x2 = 0.7749 | 865.9
353.15 K, x2 = 0.8371 | 850.3
353.15 K, x2 = 0.8689 | 842.4
353.15 K, x2 = 0.9432 | 824.2
